Results reported in patent US20250154455A1, “BIOACTIVE AND ANTIOXIDANT SUPRAMOLECULAR POLYMER HYDROGELS FOR NEURAL CELL CULTURE” (Northwestern University, priority 2023, published 2025).

Assay: Hydrogen peroxide remaining in solutions of PA or PEDOT-S/OH
Conditions: hydrogen peroxide solution, after 3 days
Protocol: The presence of ROS was determined using CellROX Green Reagent (ThermoFisher). Briefly, CellROX was added to cells for a final concentration of 5 μM and incubated for 30 mins at 37° C. Wells were washed 3× with PBS and fluorescence intensity was read at 485/520 nm using Cyation3. For solution studies, CellROX was added to solutions of PEDOT or PA containing 10 μM H2O2 at various time points.

With C16-A2G2E4GIKVAV [PA] as the substance, how does the peroxide still present read?
The peroxide still present was about 75%.
